Results as given in patent publication US20190204402A1, “METHOD FOR POST-PROCESSING MRI IMAGES TO OBTAIN HEPATIC PERFUSION AND TRANSPORT PARAMETERS” (INSERM (INSTITUT NATIONAL DE LA SANTE DE LA RECHERCHE …, priority 2016, published 2019).
Several values for one entry are separate records, joined by “and”; a condition that tells them apart may be missing. Equal values may be shown once.

System: liver of patients with chronic liver diseases
Experiment: Dynamic gadoxetate-enhanced MR imaging with dual-input three-compartment pharmacokinetic model, patients with chronic liver diseases
Assay type: in vivo, human
Protocol: The feasibility of the method was evaluated in a prospective study with liver biopsy as a gold standard on patients with liver chronic liver diseases. The institutional ethics committee approved the protocol and informed consent was obtained from each subject. Twenty-one consecutive patients (4 women, 17 men; mean age, 51.0±10.2 years) who were suspected of having chronic liver disease on clinical and biological data underwent in the same period liver biopsy and MR imaging. Mean delay between MR imaging and liver biopsy was 2.5 days (range: 0-20 days). All subjects were fasting during six hours before MR imaging. Exclusion criteria were the usual contra-indications for MR imaging.
Percutaneous liver biopsy was performed with a 1.4-mm-diameter needle (Hepafix; Braun, Melsungen, Germany). In 6 patients with ascites and/or trouble of blood crasis, liver biopsy was performed through a transjugular approach using a catheter needle with a diameter of 1.1 mm (Cook Bloomington, Ind., USA). The liver samples were fixed in buffered formalin and embedded in paraffin. Sections, 4 μm thick, were stained with hematoxylin-eosin and Masson trichrome and assessed by a pathologist blinded to the clinical data and to the results of MR imaging. The stage of fibrosis from F0 to F4 was evaluated semiquantitatively on Masson trichrome-stained slides according to the METAVIR staging system. For further analysis of fibrosis severity, a three-level staging of fibrosis was used (F0-F1: minimal fibrosis, F2-F3: intermediate fibrosis, and F4: cirrhosis). Moreover, patients with F≥2 were considered having significant fibrosis.
MR imaging was performed on a Siemens Skyra 3.0 T system (Siemens Medical Solutions, Erlangen, Germany). […] The signal was collected with the 32-channel phased array body and the spine coils.
Gadoxetate (Primovist, Bayer, Berlin, Germany) was injected intravenously using an automatic injector (Medrad Spectris Solaris, Warrendale, PA) with an injection rate of 1 mL·s^-1 and flushed with physiologic saline (same volume and injection rate). The gadoxetate dose was 0.025 mmol·kg^-1.
Dynamic liver imaging was started simultaneously with the intravenous injection of gadoxetate and was performed in free breathing.
To do this, pauses were added between dynamics as follow: for the 280 first dynamics: no pause, the effective temporal resolution was 2.1 s; for the next 150 dynamics: 5 s pause, the effective temporal resolution was 7.1 s, for the 60 last dynamics; 8 s pause, the effective temporal resolution was 10.1 s. Dynamic acquisition duration was close to 38 minutes.
To simultaneously quantify hepatic micro-perfusion and function transport parameters, a model was developed. In the liver, the quantity of gadoxetate Q between τ and τ+dτ can be expressed as the difference between incoming Qin and outgoing gadoxetate quantities Qout. This means that:
To express R(t) with kinetic indices kij, the liver is modeled with a model according to which the liver is a dual input three compartments. The three compartments are the extracellular compartment, the hepatocyte compartment and the intrahepatic bile ducts. The extracellular compartment comprises the intravascular compartment and the Disse space's.
From the motion corrected dynamic frames, arterial and portal input were recorded with freehand regions of interest (ROI) drawn in the abdominal aorta and the portal vein respectively. Tissue response was measured from a ROI placed in the right hepatic lobe anterior segment (segments V-VIII) and the right lobe posterior segment (segments VI-VII), two large ROIs covering an extended region without visible large vessels were drawn on three central slices. For inputs function and tissue response, signal intensity was converted into relative gadoxetate concentration as follows:
To convert blood concentration into plasma concentration, the input functions were normalized by one minus hematocrit. A hematocrit of 45% was assumed in this study. […]

[1] = intermediate fibrosis (F2-F3), n = 8
[2] = minimal fibrosis (F0-F1), n = 9

In the case of `CCOc1ccc(C[C@@H](CN(CCN(CC(=O)[O-])CC(=O)[O-])CC(=O)[O-])N(CC(=O)[O-])CC(=O)[O-])cc1.[Gd+3].[H+].[H+]` [gadoxetate], the Biliary efflux (cirrhosis (F4), n = 4) is reported as 0.31±0.57 mL · min^−1 · 100 g^−1, the “E (hepatocyte uptake fraction)” value (cirrhosis (F4), n = 4) is reported as 3.4±2.5% and the “MTT (extracellular mean transit time)” value (cirrhosis (F4), n = 4) is reported as 30.1 ± 12.5 s and 29.7 ± 9.7 s. The Sinusoidal backflux (cirrhosis (F4), n = 4) was 0.0012±0.002 mL · min^−1 · 100 g^−1, the “Ve (extracellular volume)” value (cirrhosis (F4), n = 4) was 30.1 ± 12.5% and the Biliary efflux [1] was 1.5±0.5 mL · min^−1 · 100 g^−1. For the same compound, the “E (hepatocyte uptake fraction)” value [1] was 8.7±3.1%, the “MTT (extracellular mean transit time)” value [1] was 14.1 ± 3.9 s and the Sinusoidal backflux [1] was 0.021 ± 0.013 mL · min^−1 · 100 g^−1. The “Ve (extracellular volume)” value [1] was 21.8 ± 6.5%, the Biliary efflux [2] was 3.2±1.0 mL · min^−1 · 100 g^−1 and the “E (hepatocyte uptake fraction)” value [2] was 12.0±3.8%. The “MTT (extracellular mean transit time)” value [2] was 15.0 ± 5.0 s, the Sinusoidal backflux [2] was 0.035±0.012 mL · min^−1 · 100 g^−1 and the “Ve (extracellular volume)” value [2] was 20.8 ± 6.2%. The “k3 (biliary efflux), parametric map” value (single F0 patient, FIG. 13) was 3.53 mL·min^-1·100 g^-1, the “k3 (biliary efflux), parametric map” value (single F1 patient, FIG. 14) was 3.67 mL·min^-1·100 g^-1 and the “k3 (biliary efflux), parametric map” value (single F2 patient, FIG. 15) was 2.23 mL·min^-1·100 g^-1. The “k3 (biliary efflux), parametric map” value (single F3 patient, FIG. 16) was 1.64 mL·min^-1·100 g^-1.
